Data on one compound can be found in article PMC2855616 (ACS Chemical Biology, 2010).

This test deals with hexokinase from Saccharomyces cerevisiae. Nature of the test: initial rates of ADP generation monitored with 5-ATR-ParM biosensor. Format: biochemical. The settings on record: read-out: KM^glucose; 1 mM ATP, 50 mM Tris-HCl pH 7.5, 25 mM KCl, 10 mM MgCl2, 20 °C.

With `OC[C@H]1OC(O)[C@H](O)[C@@H](O)[C@@H]1O` (stereo partly drawn) [D-glucose], the Km was determined as 180 ± 9 µM.

As usually defined, the Km is the substrate concentration at which the rate is half of its maximum.
